{
  "source": "patent US20240366589A1",
  "about": "“NHE3-BINDING COMPOUNDS AND METHODS FOR INHIBITING PHOSPHATE TRANSPORT” (Ardelyx, Inc., priority 2013, published 2024)",
  "key": {"[1]": {"tested_on": "phosphorus and calcium levels in the urine of rats", "test": "Urinary excretion of phosphate and calcium in rats (16 h overnight urine)", "type": "in vivo, rat", "details": "rats, oral gavage, 16 h post-dose"}, "[2]": {"tested_on": "absorption of sodium from the intestinal lumen", "test": "Fecal form score (FFS) 16 h after oral dose in rats", "type": "in vivo, rat", "details": "oral gavage, 16 h post-dose, scale 1-5", "outline": "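Eight-week-old Sprague-Dawley rats (n=6) dosed by oral gavage with compound or water vehicle between 4 and 5 PM, then housed in metabolic cages with food and water ad libitum. At 16 h, fecal form scored 1 (normal pellet) to 5 (liquid streams) by two observers; group mean reported.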"}, "[3]": {"tested_on": "absorption of sodium from the intestinal lumen", "test": "Inhibition of intestinal sodium absorption: urinary sodium (uNa) 16 h after single oral dose in rats", "type": "in vivo, rat", "details": "oral gavage, 16 h post-dose", "outline": "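Eight-week-old Sprague-Dawley rats (n=6) given single oral gavage of compound or water vehicle in the late afternoon, then kept in metabolic cages with chow and water ad libitum. Urine collected over 16 h; sodium quantified by ion chromatography and expressed as % of vehicle mean, compared by one-way ANOVA with Dunnett's test.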"}, "Human NHE3": {"molecular_target": "T1, Human NHE3 (Homo sapiens, UniProt P48764)", "T1 construct": "expressed in transfected cells; host or cells: Opossum kidney (OK) cells (ATCC), electroporation", "T1 sequence (P48764 26-834)": "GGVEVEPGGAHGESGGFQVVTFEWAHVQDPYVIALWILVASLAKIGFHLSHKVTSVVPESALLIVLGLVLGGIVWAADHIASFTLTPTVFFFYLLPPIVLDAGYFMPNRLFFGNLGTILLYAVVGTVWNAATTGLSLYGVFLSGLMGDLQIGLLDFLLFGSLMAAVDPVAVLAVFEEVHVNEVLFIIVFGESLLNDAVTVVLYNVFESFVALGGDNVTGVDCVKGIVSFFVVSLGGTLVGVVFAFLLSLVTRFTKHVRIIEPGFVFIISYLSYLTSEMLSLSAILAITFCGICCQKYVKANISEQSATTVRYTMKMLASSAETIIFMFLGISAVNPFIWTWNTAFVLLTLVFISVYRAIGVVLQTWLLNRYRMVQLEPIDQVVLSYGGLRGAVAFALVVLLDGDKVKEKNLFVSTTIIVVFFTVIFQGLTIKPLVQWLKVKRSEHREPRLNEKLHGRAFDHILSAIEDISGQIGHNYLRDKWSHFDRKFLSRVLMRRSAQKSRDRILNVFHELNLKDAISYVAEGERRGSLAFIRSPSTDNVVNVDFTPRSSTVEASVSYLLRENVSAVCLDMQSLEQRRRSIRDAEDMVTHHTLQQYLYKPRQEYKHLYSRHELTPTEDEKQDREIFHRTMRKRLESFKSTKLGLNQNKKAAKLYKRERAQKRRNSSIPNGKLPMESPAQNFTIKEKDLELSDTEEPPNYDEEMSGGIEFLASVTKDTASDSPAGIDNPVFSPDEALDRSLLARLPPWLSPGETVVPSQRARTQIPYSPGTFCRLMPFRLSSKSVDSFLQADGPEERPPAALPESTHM", "test": "Cell-based NHE3 activity under prompt conditions (OK cells, BCECF pH recovery), human NHE3", "details": "prompt conditions", "experimental": "Cell-based activity under Prompt Conditions. Rat or human NHE3-mediated Na^+-dependent H antiport was measured using a modification of the pH sensitive dye method originally reported by Paradiso (PNAS USA. 81:7436-7440, 1984). Opossum kidney (OK) cells were obtained from the ATCC and propagated per their instructions. The rat NHE3 gene (GenBank M85300) or the human NHE3 gene (GenBank NM_004174.1) was introduced into OK cells via electroporation, and cells were seeded into 96 well plates and grown overnight. Medium was aspirated from the wells, cells were washed twice with NaCl-HEPES buffer (100 mM NaCl, 50 mM HEPES, 10 mM glucose, 5 mM KCl, 2 mM CaCl2, 1 mM MgCl2, pH 7.4), then incubated for 30 min at room temperature with NH4Cl-HEPES buffer (20 mM NH4Cl, 80 mM NaCl, 50 mM HEPES, 5 mM KCl, 2 mM CaCl2, 1 mM MgCl2, pH 7.4) containing 5 μM bis(acetoxymethyl) 3,3′-(3′,6′-bis(acetoxymethoxy)-5-((acetoxymethoxy)carbonyl)-3-oxo-3H-spiro[isobenzofuran-1,9′-xanthene]-2′,7′-diyl)dipropanoate (BCECF-AM).\nCells were washed twice with Ammonium free, Na^+-free HEPES (100 mM choline, 50 mM HEPES, 10 mM glucose, 5 mM KCl, 2 mM CaCl2, 1 mM MgCl2, pH 7.4) and incubated in the same buffer for 10 minutes at room temperature to lower intracellular pH. […] Initial rates were plotted as the average 2 or more replicates, and pIC50 values were estimated using GraphPad Prism.\nCell-based activity of NHE3 Activity under ‘Prompt’ Conditions. This assay was performed as described in Example 1 (supra)."}, "Rat NHE3": {"molecular_target": "T2, Rat NHE3 (Rattus norvegicus, UniProt P26433)", "T2 construct": "expressed in transfected cells; host or cells: Opossum kidney (OK) cells (ATCC), electroporation", "T2 sequence (P26433 29-831)": "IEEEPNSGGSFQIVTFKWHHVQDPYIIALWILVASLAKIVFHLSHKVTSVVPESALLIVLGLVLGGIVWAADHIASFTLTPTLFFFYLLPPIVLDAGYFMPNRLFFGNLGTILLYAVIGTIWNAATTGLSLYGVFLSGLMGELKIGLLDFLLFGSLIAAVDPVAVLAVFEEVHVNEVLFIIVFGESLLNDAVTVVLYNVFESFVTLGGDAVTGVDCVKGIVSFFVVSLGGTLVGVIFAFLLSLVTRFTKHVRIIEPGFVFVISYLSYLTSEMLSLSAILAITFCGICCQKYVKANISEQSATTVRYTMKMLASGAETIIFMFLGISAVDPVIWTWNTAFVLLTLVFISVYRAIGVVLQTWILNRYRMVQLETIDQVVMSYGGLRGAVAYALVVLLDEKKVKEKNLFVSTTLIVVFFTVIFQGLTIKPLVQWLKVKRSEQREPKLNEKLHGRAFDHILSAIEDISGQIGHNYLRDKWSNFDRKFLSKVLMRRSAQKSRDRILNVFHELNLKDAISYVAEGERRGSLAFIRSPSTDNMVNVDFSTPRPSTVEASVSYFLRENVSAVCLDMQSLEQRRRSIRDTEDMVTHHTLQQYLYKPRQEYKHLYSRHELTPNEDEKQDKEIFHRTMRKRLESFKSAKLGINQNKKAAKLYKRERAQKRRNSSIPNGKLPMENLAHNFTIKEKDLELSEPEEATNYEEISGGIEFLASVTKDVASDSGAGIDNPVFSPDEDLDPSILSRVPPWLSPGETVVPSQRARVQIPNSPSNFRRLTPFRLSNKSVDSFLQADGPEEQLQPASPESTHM", "test": "Cell-based NHE3 activity under prompt conditions (OK cells, BCECF pH recovery), rat NHE3", "details": "prompt conditions", "outline": "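Cells (OK line, electroporated with rat or human NHE3) are washed in NaCl-HEPES pH 7.4, then dye-loaded 30 min at room temperature with 5 μM BCECF-AM in NH4Cl buffer.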"}},
  "data": [
    {"compound": "NCCOCCOCCOc1cccc(-c2nc(N=C(N)N)nc3ccc(Cl)cc23)c1", "note": "[compound 10]", "values": [
      {"measurement": "Urine P % of control", "setting": "[1]; dose 10 mg/kg", "result": 80, "unit": "%"},
      {"measurement": "Fecal Form Score average", "setting": "[2]; dose 10 mg/kg", "result": 1},
      {"measurement": "Urine Na % of control", "setting": "[3]; dose 10 mg/kg", "result": 76, "unit": "%"},
      {"measurement": "Prompt Human NHE3 pIC50", "setting": "Human NHE3", "result": 7.50},
      {"measurement": "Prompt Rat NHE3 pIC50", "setting": "Rat NHE3", "result": 6.65}
    ]},
    {"compound": "NCCOCCOCCOc1ccc(-c2nc(N=C(N)N)nc3ccc(Cl)cc23)cc1", "note": "[compound 11]", "values": [
      {"measurement": "Urine P % of control", "setting": "[1]; dose 10 mg/kg", "result": 64, "unit": "%"},
      {"measurement": "Urine P % of control", "setting": "[1]; dose 30 mg/kg", "result": 96, "unit": "%"},
      {"measurement": "Fecal Form Score average", "setting": "[2]; dose 10 mg/kg", "result": 1},
      {"measurement": "Fecal Form Score average", "setting": "[2]; dose 30 mg/kg", "result": 2},
      {"measurement": "Urine Na % of control", "setting": "[3]; dose 10 mg/kg", "result": 60, "unit": "%"},
      {"measurement": "Urine Na % of control", "setting": "[3]; dose 30 mg/kg", "result": 29, "unit": "%"},
      {"measurement": "Prompt Human NHE3 pIC50", "setting": "Human NHE3", "result": 6.80},
      {"measurement": "Prompt Rat NHE3 pIC50", "setting": "Rat NHE3", "result": 6.95}
    ]},
    {"compound": "N=C(N)Nc1nc(-c2cccc(S(=O)(=O)NCCOCCOCCOCCN)c2)c2cc(Cl)ccc2n1", "note": "[compound 12]", "values": [
      {"measurement": "Urine P % of control", "setting": "[1]; dose 10 mg/kg", "result": 94, "unit": "%"},
      {"measurement": "Fecal Form Score average", "setting": "[2]; dose 10 mg/kg", "result": 1},
      {"measurement": "Urine Na % of control", "setting": "[3]; dose 10 mg/kg", "result": 82, "unit": "%"},
      {"measurement": "Prompt Human NHE3 pIC50", "setting": "Human NHE3", "result": 7.00},
      {"measurement": "Prompt Rat NHE3 pIC50", "setting": "Rat NHE3", "result": 6.10}
    ]},
    {"compound": "C/C(=C\\c1cc(F)c(Oc2ccc(S(=O)(=O)NCCOCCOCCOCCNCc3ccc(CNCCOCCOCCOCCNS(=O)(=O)c4ccc(Oc5c(F)cc(/C=C(\\C)C(=O)N=C(N)N)cc5F)cc4)cc3)cc2)c(F)c1)C(=O)N=C(N)N", "note": "[compound 13]", "values": [
      {"measurement": "Urine P % of control", "setting": "[1]; dose 10 mg/kg", "result": 56, "unit": "%"},
      {"measurement": "Fecal Form Score average", "setting": "[2]; dose 10 mg/kg", "result": 1},
      {"measurement": "Urine Na % of control", "setting": "[3]; dose 10 mg/kg", "result": 74, "unit": "%"},
      {"measurement": "Prompt Human NHE3 pIC50", "setting": "Human NHE3", "result": 7.40},
      {"measurement": "Prompt Rat NHE3 pIC50", "setting": "Rat NHE3", "result": 6.70}
    ]},
    {"compound": "C/C(=C\\c1cc(F)c(Oc2ccc(S(=O)(=O)NCCOCCOCCOCCNC(=O)NCCOCCOCCNC(=O)NCCOCCOCCOCCNS(=O)(=O)c3ccc(Oc4c(F)cc(/C=C(\\C)C(=O)N=C(N)N)cc4F)cc3)cc2)c(F)c1)C(=O)N=C(N)N", "note": "[compound 14]", "values": [
      {"measurement": "Urine P % of control", "setting": "[1]; dose 10 mg/kg", "result": 59, "unit": "%"},
      {"measurement": "Fecal Form Score average", "setting": "[2]; dose 10 mg/kg", "result": 1},
      {"measurement": "Urine Na % of control", "setting": "[3]; dose 10 mg/kg", "result": 51, "unit": "%"},
      {"measurement": "Prompt Human NHE3 pIC50", "setting": "Human NHE3", "result": 7.60},
      {"measurement": "Prompt Rat NHE3 pIC50", "setting": "Rat NHE3", "result": 7.00}
    ]},
    {"compound": "C/C(=C\\c1cc(F)c(Oc2ccc(S(=O)(=O)NCCOCCOCCOCCNC(=O)COCC(=O)NCCOCCOCCOCCNS(=O)(=O)c3ccc(Oc4c(F)cc(/C=C(\\C)C(=O)N=C(N)N)cc4F)cc3)cc2)c(F)c1)C(=O)N=C(N)N", "note": "[compound 15]", "values": [
      {"measurement": "Urine P % of control", "setting": "[1]; dose 10 mg/kg", "result": 65, "unit": "%"},
      {"measurement": "Fecal Form Score average", "setting": "[2]; dose 10 mg/kg", "result": 1},
      {"measurement": "Urine Na % of control", "setting": "[3]; dose 10 mg/kg", "result": 77, "unit": "%"},
      {"measurement": "Prompt Human NHE3 pIC50", "setting": "Human NHE3", "result": 7.90},
      {"measurement": "Prompt Rat NHE3 pIC50", "setting": "Rat NHE3", "result": 7.30}
    ]},
    {"compound": "NCCOCCOCCN1CCN(c2cccc(-c3nc(N=C(N)N)nc4ccc(Cl)cc34)c2)CC1", "note": "[compound 16]", "values": [
      {"measurement": "Urine P % of control", "setting": "[1]; dose 30 mg/kg", "result": 123, "unit": "%"},
      {"measurement": "Fecal Form Score average", "setting": "[2]; dose 30 mg/kg", "result": 1},
      {"measurement": "Urine Na % of control", "setting": "[3]; dose 30 mg/kg", "result": 87, "unit": "%"},
      {"measurement": "Prompt Human NHE3 pIC50", "setting": "Human NHE3", "result": 7.80},
      {"measurement": "Prompt Rat NHE3 pIC50", "setting": "Rat NHE3", "result": 6.70}
    ]},
    {"compound": "NC(N)=Nc1nc(-c2ccc(N3CCN(CCOCCOCCNC(=O)[C@H](O)[C@@H](O)C(=O)NCCOCCOCCN4CCN(c5ccc(-c6nc(N=C(N)N)nc7ccc(Cl)cc67)cc5)CC4)CC3)cc2)c2cc(Cl)ccc2n1", "note": "[compound 17]", "values": [
      {"measurement": "Urine P % of control", "setting": "[1]; dose 30 mg/kg", "result": 120, "unit": "%"},
      {"measurement": "Fecal Form Score average", "setting": "[2]; dose 30 mg/kg", "result": 1},
      {"measurement": "Urine Na % of control", "setting": "[3]; dose 30 mg/kg", "result": 86, "unit": "%"},
      {"measurement": "Prompt Human NHE3 pIC50", "setting": "Human NHE3", "result": 6.60},
      {"measurement": "Prompt Rat NHE3 pIC50", "setting": "Rat NHE3", "result": 7.10}
    ]}
  ]
}
